{
  "source": "patent US7648961B2",
  "about": "“Use of somatostatin or one of its analogues for preparing a medicament intended to regulate the ovarian follicular reserve in non-menopausal women” (Preglem S.A., priority 2003, dated 2010)",
  "key": {"[1]": {"test_system": "primordial follicles of ovarian cortex", "experiment": "Culture of ewe ovarian cortex fragments for 10 days: start of growth of primordial follicles", "format": "cell-based", "settings": "for start of growth of the primordial follicles: ewe ovarian cortex, 10 days of culture, versus control fragments", "description": "Ovaries of adult ewes are collected immediately after slaughter. The ovaries are placed in an organ transport medium without serum (X-vivo, Bio Whittaker, Walkersville, Md., USA) at 10° C. and transported to the laboratory. Approximately 1 h after removal, the cortex is isolated from the medulla then fractionated into slices of 2 mm thickness (1 cm^2, average weight of 212 mg) after rinsing in new X-vivo. The cortex fragments are cultured in an oven under 5% oxygen for 10 days in well plates in the presence of DMEM. The medium is changed every 2 days.\nThe procedure used is the same as for Example 1, except that the somatostatin is replaced with one of its agonist analogues, namely the synthetic peptide of formula c[Tic-Tyr-DTrp-Lys-Abu-Phe] (hereafter AG1 peptide).\nThe procedure used is the same as for Example 1, except that the somatostatin is replaced by one of its antagonist analogues, namely the synthetic peptide of formula Cpa-c(DCys-3-Pal-DTrp-NMeLys-Thr-Cys)-2-Nal-NH2 (hereafter ANT1 peptide).\n(§1) FIG. 1 represents the proportions of dormant follicles during a period of 10 days of culture of an ovarian cortex of a ewe in the presence or absence (control) of somatostatin (SST14). These proportions are measured for each sample tested on the day of the start of the experiment (D0), on the 4th day (D4), on the 7th day (D7) and on the 10th day (D10).\nas §1, with “FIG. 2” for “FIG. 1”, “of primary” for “of dormant”\nFIG. 3 represents the proportions of primordial, intermediate, primary and secondary follicles during a period of 10 days of culture of an ovarian cortex of a ewe in the absence of agonist or somatostatin antagonist analogue. These proportions are measured for each sample tested on the day of the start of the experiment (D0), on the 4th day (D4), on the 7th day (D7) and on the 10th day (D10).\n(§2) FIG. 4 represents the proportions of primordial, intermediate, primary and secondary follicles during a period of 10 days of culture of an ovarian cortex of a ewe in the presence or absence of a somatostatin agonist analogue, the synthetic peptide of formula c[Tic-Tyr-DTrp-Lys-Abu-Phe] (AG1 peptide). These proportions are measured for each sample tested on the day of the start of the experiment (D0), on the 4th day (D4), on the 7th day (D7) and on the 10th day (D10).\nas §2, with “FIG. 5” for “FIG. 4”, “somatostatin antagonist” for “somatostatin agonist”, “formula Cpa-c(DCys-3-Pal-DTrp-NMeLys-Thr-Cys)-2-Nal-NH2 (ANT1” for “formula c[Tic-Tyr-DTrp-Lys-Abu-Phe] (AG1”"}, "ovarian follicles": {"test_system": "ovarian follicles", "experiment": "Envisaged typical clinical situations of use in patients", "format": "in vivo, human", "settings": "patient with polycystic ovary syndrome, 120 mg/month, 4th month of treatment, envisaged situation", "source_text": "The following typical situations for a use according to the invention could however be envisaged: • A patient of approximately 20 to 25 years of age (for example) has a partial Turner syndrome through X chromosome microdeletion. Their ovarian function is apparently normal with regular ovulatory cycles. Their FSH serum level is slightly higher during the luteal-follicular transition period (for example FSH=approximately 9.2 IU/litre). […] Considering the high risk that they will have early menopause, the patient is treated with lanreotide acetate at a dose of 120 mg/months (Somatuline® Autogel® 120 mg, Beaufour Ipsen Pharma, France). The treatment is discontinued after several years when the patient wishes to conceive. • A patient of approximately 35 to 40 years of age has had primary sterility for several years. Assessment of the couple produced a diagnosis of sterility of tubal origin, very probably resulting from a history of peritonitis. The menstrual cycles are ovulatory and the FSH serum level is slightly higher during the luteal-follicular transition period (for example FSH=approximately 11.4 IU/L). […] A diagnosis of reduction of the ovarian reserve is made. […] During this treatment, the number of antral follicles present in each ovary is assessed by ultrasound at the start of each menstrual cycle. […]"}, "[2]": {"settings": "AG1 peptide at 10^-9 M, D0-D10, FIG. 4"}},
  "note": "Where a SMILES comes first, the peptide text is derived from it. [ ]: non-standard residue; d: D form. Tic = O=C(O)[C@@H]1Cc2ccccc2CN1; Abu = CC[C@H](N)C(=O)O",
  "data": [
    {"compound": "CC[C@@H]1NC(=O)[C@H](CCCCN)NC(=O)[C@@H](Cc2c[nH]c3ccccc23)NC(=O)[C@H](Cc2ccc(O)cc2)NC(=O)[C@@H]2Cc3ccccc3CN2C(=O)[C@H](Cc2ccccc2)NC1=O", "note": "[AG1 peptide, c[Tic-Tyr-DTrp-Lys-Abu-Phe]] (cyclo([Tic]Y[dW]K[Abu]F))", "values": [
      {"measurement": "number of primary follicles", "setting": "[1]; [2]", "value": "absence of increase in the number of primary follicles"},
      {"measurement": "number of primordial follicles over time", "setting": "[1]; [2]", "value": "maintenance over time of the number of primordial follicles"},
      {"measurement": "start of growth of the primordial follicles", "setting": "[1]; AG1 peptide at 10^-9 M", "value": "very significantly inhibits the start of growth of the primordial follicles"}
    ]},
    {"compound": "C[C@H](N)C(=O)NCC(=O)N[C@H]1CSSC[C@@H](C(=O)O)NC(=O)[C@H](CO)NC(=O)[C@H]([C@@H](C)O)NC(=O)[C@H](Cc2ccccc2)NC(=O)[C@H]([C@@H](C)O)NC(=O)[C@H](CCCCN)NC(=O)[C@H](Cc2c[nH]c3ccccc23)NC(=O)[C@H](Cc2ccccc2)NC(=O)[C@H](Cc2ccccc2)NC(=O)[C@H](CC(N)=O)NC(=O)[C@H](CCCCN)NC1=O", "note": "[SST14]", "values": [
      {"measurement": "number of primordial follicles over time", "setting": "[1]; SST14 at 10^-9 M to 10^-6 M, D0-D10, FIG. 1", "value": "maintenance over time of the number of primordial follicles"},
      {"measurement": "number of primary follicles", "setting": "[1]; SST14 at 10^-9 M to 10^-6 M, D0-D10, FIG. 2", "value": "absence of increase in the number of primary follicles"},
      {"measurement": "start of growth of the primordial follicles", "setting": "[1]; SST14 at 10^-9 M to 10^-6 M", "value": "very significantly inhibits the start of growth of the primordial follicles"}
    ]},
    {"compound": "CC(C)[C@@H]1NC(=O)[C@H](CCCCN)NC(=O)[C@@H](Cc2c[nH]c3ccccc23)NC(=O)[C@H](Cc2ccc(O)cc2)NC(=O)[C@@H](NC(=O)[C@H](N)Cc2ccc3ccccc3c2)CSSC[C@@H](C(=O)N[C@H](C(N)=O)[C@@H](C)O)NC1=O", "note": "[lanreotide acetate]", "values": [
      {"measurement": "ovarian volume and number of antral follicles (ultrasound)", "setting": "ovarian follicles", "value": "reduction in ovarian volume and in the number of antral follicles"}
    ]}
  ]
}
